# Results published in PubChem BioAssay AID2060489 (Molecular Pharmacology Branch, DTP, NCI, 2025).
# System: 922993-354-T-J3-PDC complex spheroids, viability
# Assay: Anticancer human tumor 922993-354-T-J3-PDC patient-derived endometrial carcinoma cell line growth inhibition [GQUAD]
# Conditions: for IC50: curve of first compound; for viability, T/C: stronger effect = lower value
# In short: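 Tumor cells were grown as complex spheroids with HUVEC endothelial cells and mesenchymal stem cells as stroma. G-quadruplex stabilizers were combined with targeted agents over half-log dilutions from near the clinical Cmax, or from 10 microM.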
# [1] = second compound 0.0316 µM, first compound 0.0316 µM
# [2] = second compound 0.0316 µM, first compound 0.316 µM
# [3] = second compound 0.1 µM, first compound 0.0316 µM
# [4] = second compound 0.1 µM, first compound 0.316 µM
# [5] = second compound 0.316 µM, first compound 0.0316 µM
# [6] = second compound 0.316 µM, first compound 0.316 µM
# [7] = second compound 1 µM, first compound 0.0316 µM
# [8] = second compound 1 µM, first compound 0.316 µM
# [9] = second compound 3.16 µM, first compound 0.0316 µM
# [10] = second compound 3.16 µM, first compound 0.316 µM
# [11] = second compound 10 µM, first compound 0.0316 µM
# [12] = second compound 10 µM, first compound 0.316 µM
# [13] = second compound 0.0316 µM, first compound 0.1 µM
# [14] = second compound 0.0316 µM, first compound 1 µM
# [15] = second compound 0.0316 µM, first compound 3.16 µM
# [16] = second compound 0.0316 µM, first compound 10 µM
# [17] = second compound 0.1 µM, first compound 0.1 µM
# [18] = second compound 0.1 µM, first compound 1 µM
# [19] = second compound 0.1 µM, first compound 3.16 µM
# [20] = second compound 0.1 µM, first compound 10 µM
# [21] = second compound 0.316 µM, first compound 0.1 µM
# [22] = second compound 0.316 µM, first compound 1 µM
# [23] = second compound 0.316 µM, first compound 3.16 µM
# [24] = second compound 0.316 µM, first compound 10 µM
# [25] = second compound 1 µM, first compound 0.1 µM
# [26] = second compound 1 µM, first compound 1 µM
# [27] = second compound 1 µM, first compound 3.16 µM
# [28] = second compound 1 µM, first compound 10 µM
# [29] = second compound 3.16 µM, first compound 0.1 µM
# [30] = second compound 3.16 µM, first compound 1 µM
# [31] = second compound 3.16 µM, first compound 3.16 µM
# [32] = second compound 3.16 µM, first compound 10 µM
# [33] = second compound 10 µM, first compound 0.1 µM
# [34] = second compound 10 µM, first compound 1 µM
# [35] = second compound 10 µM, first compound 3.16 µM
# [36] = second compound 10 µM, first compound 10 µM
# 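Also: spheroids exposed to compounds for seven days.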
# 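For viability, T/C in this document: 100% = DMSO vehicle control viability.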
structure (smiles),measurement,setting,value
CCc1c2c(nc3ccc(O)cc13)-c1cc3c(c(=O)n1C2)COC(=O)[C@]3(O)CC + CN(C)c1ccc(Nc2c3ccc(NC(=O)CCN4CCCC4)cc3nc3cc(NC(=O)CCN4CCCC4)ccc23)cc1,IC50,second compound 0.0316 µM,0.0065 µM
same,IC50,second compound 0.1 µM,0.00699 µM
same,IC50,second compound 0.316 µM,0.00611 µM
same,IC50,second compound 1 µM,0.00651 µM
same,IC50,second compound 3.16 µM,0.00683 µM
same,IC50,second compound 10 µM,0.00898 µM
same,"viability, T/C","second compound 0.0316 µM, first compound 0.000999 µM",99.2%
same,"viability, T/C","second compound 0.0316 µM, first compound 0.00316 µM",78.4%
same,"viability, T/C","second compound 0.0316 µM, first compound 0.00999 µM",34.1%
same,"viability, T/C",[1],10.4%
same,"viability, T/C","second compound 0.0316 µM, first compound 0.0999 µM",10.1%
same,"viability, T/C",[2],20.1%
same,"viability, T/C","second compound 0.1 µM, first compound 0.000999 µM",96.4%
same,"viability, T/C","second compound 0.1 µM, first compound 0.00316 µM",94.1%
same,"viability, T/C","second compound 0.1 µM, first compound 0.00999 µM",30%
same,"viability, T/C",[3],7.58%
same,"viability, T/C","second compound 0.1 µM, first compound 0.0999 µM",12%
same,"viability, T/C",[4],16.8%
same,"viability, T/C","second compound 0.316 µM, first compound 0.000999 µM",90.6%
same,"viability, T/C","second compound 0.316 µM, first compound 0.00316 µM",74.3%
same,"viability, T/C","second compound 0.316 µM, first compound 0.00999 µM",32.5%
same,"viability, T/C",[5],9.44%
same,"viability, T/C","second compound 0.316 µM, first compound 0.0999 µM",12.3%
same,"viability, T/C",[6],13.8%
same,"viability, T/C","second compound 1 µM, first compound 0.000999 µM",96%
same,"viability, T/C","second compound 1 µM, first compound 0.00316 µM",77.5%
same,"viability, T/C","second compound 1 µM, first compound 0.00999 µM",34.4%
same,"viability, T/C",[7],12.8%
same,"viability, T/C","second compound 1 µM, first compound 0.0999 µM",11.8%
same,"viability, T/C",[8],17.7%
same,"viability, T/C","second compound 3.16 µM, first compound 0.000999 µM",96.7%
same,"viability, T/C","second compound 3.16 µM, first compound 0.00316 µM",79.8%
same,"viability, T/C","second compound 3.16 µM, first compound 0.00999 µM",36.3%
same,"viability, T/C",[9],11.4%
same,"viability, T/C","second compound 3.16 µM, first compound 0.0999 µM",12.9%
same,"viability, T/C",[10],20.6%
same,"viability, T/C","second compound 10 µM, first compound 0.000999 µM",111%
same,"viability, T/C","second compound 10 µM, first compound 0.00316 µM",89.1%
same,"viability, T/C","second compound 10 µM, first compound 0.00999 µM",49.3%
same,"viability, T/C",[11],14.4%
same,"viability, T/C","second compound 10 µM, first compound 0.0999 µM",17.4%
same,"viability, T/C",[12],23.3%
COc1ncnc(C2CC2)c1-c1ncc2cnn(Cc3ccc(-c4nc(C(F)(F)F)cn4C(C)C)cc3)c2n1 + Cc1[nH]c2ccc(F)cc2c1-c1nc2c3cccnc3c3ncccc3c2[nH]1,IC50,second compound 0.0316 µM,> 10 µM
same,IC50,second compound 0.1 µM,> 10 µM
same,IC50,second compound 0.316 µM,> 10 µM
same,IC50,second compound 1 µM,> 10 µM
same,IC50,second compound 3.16 µM,> 10 µM
same,IC50,second compound 10 µM,> 10 µM
same,"viability, T/C",[1],94.6%
same,"viability, T/C",[13],87.3%
same,"viability, T/C",[2],80.7%
same,"viability, T/C",[14],82.3%
same,"viability, T/C",[15],90.7%
same,"viability, T/C",[16],88.8%
same,"viability, T/C",[3],123%
same,"viability, T/C",[17],99.2%
same,"viability, T/C",[4],90.1%
same,"viability, T/C",[18],70.1%
same,"viability, T/C",[19],96.2%
same,"viability, T/C",[20],93.2%
same,"viability, T/C",[5],97.2%
same,"viability, T/C",[21],111%
same,"viability, T/C",[6],94.7%
same,"viability, T/C",[22],92.2%
same,"viability, T/C",[23],91.4%
same,"viability, T/C",[24],79.8%
same,"viability, T/C",[7],98.2%
same,"viability, T/C",[25],86.6%
same,"viability, T/C",[8],107%
same,"viability, T/C",[26],88.2%
same,"viability, T/C",[27],110%
same,"viability, T/C",[28],95.1%
same,"viability, T/C",[9],80.2%
same,"viability, T/C",[29],116%
same,"viability, T/C",[10],105%
same,"viability, T/C",[30],124%
same,"viability, T/C",[31],123%
same,"viability, T/C",[32],90.6%
same,"viability, T/C",[11],104%
same,"viability, T/C",[33],103%
same,"viability, T/C",[12],116%
same,"viability, T/C",[34],92.3%
same,"viability, T/C",[35],95.7%
same,"viability, T/C",[36],97.6%
O=c1[nH]cc(F)c(=O)[nH]1 + Cc1[nH]c2ccc(F)cc2c1-c1nc2c3cccnc3c3ncccc3c2[nH]1,IC50,second compound 0.0316 µM,> 10 µM
same,IC50,second compound 0.1 µM,> 10 µM
same,IC50,second compound 0.316 µM,> 10 µM
same,IC50,second compound 1 µM,> 10 µM
same,IC50,second compound 3.16 µM,> 10 µM
same,IC50,second compound 10 µM,> 10 µM
same,"viability, T/C",[1],85%
same,"viability, T/C",[13],77.8%
same,"viability, T/C",[2],113%
same,"viability, T/C",[14],105%
same,"viability, T/C",[15],80.4%
same,"viability, T/C",[16],55.3%
same,"viability, T/C",[3],117%
same,"viability, T/C",[17],87.6%
same,"viability, T/C",[4],102%
same,"viability, T/C",[18],99.6%
same,"viability, T/C",[19],69.2%
same,"viability, T/C",[20],66.4%
same,"viability, T/C",[5],119%
same,"viability, T/C",[21],83.7%
same,"viability, T/C",[6],103%
same,"viability, T/C",[22],94.3%
same,"viability, T/C",[23],95.5%
same,"viability, T/C",[24],64.8%
same,"viability, T/C",[7],87.2%
same,"viability, T/C",[25],104%
same,"viability, T/C",[8],95.8%
same,"viability, T/C",[26],71.6%
same,"viability, T/C",[27],82.1%
same,"viability, T/C",[28],53.9%
same,"viability, T/C",[9],90%
same,"viability, T/C",[29],84.6%
same,"viability, T/C",[10],98.8%
same,"viability, T/C",[30],96.8%
same,"viability, T/C",[31],76.2%
same,"viability, T/C",[32],59%
same,"viability, T/C",[11],104%
same,"viability, T/C",[33],109%
same,"viability, T/C",[12],93.6%
same,"viability, T/C",[34],92.6%
same,"viability, T/C",[35],103%
same,"viability, T/C",[36],61.6%
O=c1[nH]cc(F)c(=O)[nH]1 + CN(C)c1ccc(Nc2c3ccc(NC(=O)CCN4CCCC4)cc3nc3cc(NC(=O)CCN4CCCC4)ccc23)cc1,IC50,second compound 0.0316 µM,5.9 µM
same,IC50,second compound 0.1 µM,4.59 µM
same,IC50,second compound 0.316 µM,3.93 µM
same,IC50,second compound 1 µM,5.83 µM
same,IC50,second compound 3.16 µM,5.93 µM
same,IC50,second compound 10 µM,5.37 µM
same,"viability, T/C",[1],82.1%
same,"viability, T/C",[13],84.7%
same,"viability, T/C",[2],81.8%
same,"viability, T/C",[14],91.8%
same,"viability, T/C",[15],83.7%
same,"viability, T/C",[16],21.4%
same,"viability, T/C",[3],110%
same,"viability, T/C",[17],93.9%
same,"viability, T/C",[4],112%
same,"viability, T/C",[18],81%
same,"viability, T/C",[19],69.2%
same,"viability, T/C",[20],15.7%
same,"viability, T/C",[5],103%
same,"viability, T/C",[21],100%
same,"viability, T/C",[6],91.4%
same,"viability, T/C",[22],78.1%
same,"viability, T/C",[23],56.8%
same,"viability, T/C",[24],22.5%
same,"viability, T/C",[7],95.8%
same,"viability, T/C",[25],100%
same,"viability, T/C",[8],90.6%
same,"viability, T/C",[26],105%
same,"viability, T/C",[27],82.1%
same,"viability, T/C",[28],21.9%
same,"viability, T/C",[9],90.4%
same,"viability, T/C",[29],113%
same,"viability, T/C",[10],105%
same,"viability, T/C",[30],98.2%
same,"viability, T/C",[31],87.5%
same,"viability, T/C",[32],18.8%
same,"viability, T/C",[11],117%
same,"viability, T/C",[33],135%
same,"viability, T/C",[12],121%
same,"viability, T/C",[34],117%
same,"viability, T/C",[35],72.9%
same,"viability, T/C",[36],23.1%
